These results are taken from patent US12365850B2, “Water-miscible functional fluid, undiluted stock of water-miscible functional fluid, sterilizer for water-miscible functional fluid, and method of sterilizing water-miscible function fluid” (priority 2020, dated 2025).

The structures appear in SMILES notation.

The test deals with bacteria. Description: Photosterilization test of neutral photosensitizers (bacterial count after light irradiation). The format is cell-based. The following applies: wavelength 450 nm, photosensitizer 50 ppm (Lumichrome 20 ppm).
The mark [1] stands for this setting: irradiance 100 μW/cm2, light intensity 10 J/cm2.
Setting [2] is: irradiance 100 μW/cm2, light intensity 30 J/cm2.
Setting [3] is: irradiance 100 μW/cm2, light intensity 50 J/cm2.
Setting [4] is: irradiance 100 μW/cm2, light intensity 100 J/cm2.
Setting [5] is: irradiance 100 μW/cm2, light intensity 200 J/cm2.
The mark [6] stands for this setting: irradiance 100 μW/cm2, light intensity 400 J/cm2.

On to `Cc1cc2nc3c(=O)[nH]c(=O)nc-3n(CC(O)C(O)C(O)COP(=O)([O-])O)c2cc1C.[Na+]` (stereo not drawn) [Example 6, Riboflavin sodium phosphate], for which the Bacterial count result under setting [1] is listed as “++ (bacterial count was 1.0×10^6 CFU/ml to 1.4×10^7 CFU/ml)”; the Bacterial count entry under setting [2] was “+ (bacterial count was at least 1.0×10^2 CFU/ml and less than 1.0×10^6 CFU/ml)”; the Bacterial count entry under setting [3] was “+ (bacterial count was at least 1.0×10^2 CFU/ml and less than 1.0×10^6 CFU/ml)”; the Bacterial count entry under setting [4] was “+ (bacterial count was at least 1.0×10^2 CFU/ml and less than 1.0×10^6 CFU/ml)”; the Bacterial count result under setting [5] is “− (bacterial count was at least 0 and less than 1.0×10^2 CFU/mil)”; the Bacterial count entry under setting [6] is “− (bacterial count was at least 0 and less than 1.0×10^2 CFU/mil)”.

As for `CCCC(=O)OCC(OC(=O)CCC)C(OC(=O)CCC)C(Cn1c2nc(=O)[nH]c(=O)c-2nc2cc(C)c(C)cc21)OC(=O)CCC` (stereo not drawn) [Example 7, Riboflavin butyrate], the Bacterial count result by setting is: under setting [1], “++ (bacterial count was 1.0×10^6 CFU/ml to 1.4×10^7 CFU/ml)”; under setting [2], “+ (bacterial count was at least 1.0×10^2 CFU/ml and less than 1.0×10^6 CFU/ml)”; under setting [3], “+ (bacterial count was at least 1.0×10^2 CFU/ml and less than 1.0×10^6 CFU/ml)”; under setting [4], “+ (bacterial count was at least 1.0×10^2 CFU/ml and less than 1.0×10^6 CFU/ml)”; under setting [5], “− (bacterial count was at least 0 and less than 1.0×10^2 CFU/mil)”; under setting [6], “− (bacterial count was at least 0 and less than 1.0×10^2 CFU/mil)”.
